Laboratory results taken from patent EP2387997A1, “Use of dronedarone for the preparation of a medicament for the prevention of cardiovascular events in patients who developed permanent atrial fibrillation throughout the period the dronedarone is administered” (SANOFI, priority 2010, dated 2011).
Where a name gives a salt, the structure may show the parent alone. Read-outs that look alike come from different tables or passages of the source.

Tests used:
[1] = test system: patients with persistent atrial fibrillation; details: cited from earlier work; for effectiveness in increasing the time to a recurrence of atrial fibrillation relative to sotalol / increasing the time to a recurrence of atrial fibrillation: P<0.001; for number of strokes per 100 patient-years of follow-up: persistent atrial fibrillation, placebo 1.91, calculated from the article of Singh et al, page 1866; for increasing the time to a recurrence of atrial fibrillation: versus placebo
[2] = test system: patients who developed permanent atrial fibrillation/flutter; experiment: prospective, multinational, double-blind, randomized, multi-center, placebo-controlled, parallel group trial of dronedarone hydrochloride; assay type: in vivo
Experimental: • Patients in permanent atrial fibrillation • Patients in unstable hemodynamic condition such as acute pulmonary edema within 12 hours prior to start of study medication; cardiogenic shock; treatment with IV pressor agents; patients on respirator; congestive heart failure of stage NYHA IV within the last 4 weeks; uncorrected, hemodynamically significant primary obstructive valvular disease; hemodynamically significant obstructive cardomyopathy; a cardiac operation or revascularization procedure within 4 weeks preceding randomization • Planned major non-cardiac or cardiac surgery or procedures including surgery for valvular heart disease, coronary artery bypass graft (CABG), percutaneous coronary intervention (PCI), or on urgent cardiac transplantation list • Acute myocarditis or constrictive pericarditis • Bradycardia < 50 bpm and/or PR-interval ≥ 0.28 sec on the last 12-lead ECG. • Significant sinus node disease (documented pause of 3 seconds or more) or 2nd or 3rd degree atrioventricular block (AV-block) unless treated with a pacemaker.

[3] = test system: stroke; details: ATHENA trial; cited from earlier work

For `CCCCc1oc2ccccc2c1C(=O)c1cc(I)c(OCCN(CC)CC)c(I)c1` [amiodarone], the “effectiveness in increasing the time to a recurrence of atrial fibrillation relative to sotalol” value ([1]; analysis according to the treatment actually received) is given as “four times as effective”, the “effectiveness in increasing the time to a recurrence of atrial fibrillation relative to sotalol” value ([1]; intention-to-treat analysis) is given as “six times as effective as sotalol” and the “number of strokes per 100 patient-years of follow-up” value [1] is given as 2.06 per 100 patient-years. For the same molecule, the “increasing the time to a recurrence of atrial fibrillation” value [1] was “significantly more effective than placebo”.
For `CCCCc1oc2ccc(NS(C)(=O)=O)cc2c1C(=O)c1ccc(OCCCN(CCCC)CCCC)cc1` [dronedarone hydrochloride], the “events (stroke, Acute Coronary Syndrome (ACS) or cardiovascular death)” value ([2]; among the 178 patients who developed permanent atrial fibrillation/flutter on dronedarone hydrochloride, placebo group 24 events (295 patients)) was 12 events, the “Calculated relative risk of stroke, Acute Coronary Syndrome (ACS) or cardiovascular death” value ([2]; dronedarone versus placebo, Cox's proportional hazard model, patients who developed permanent atrial fibrillation/flutter) was 0.805 and the “patients developed permanent atrial fibrillation/flutter” value ([2]; of 2301 patients treated with dronedarone hydrochloride (400 mg of base, one tablet morning and evening, 12 to 30 months), placebo group 295) was 178 patients. For the same molecule, the “decrease of the relative risk of stroke, Acute Coronary Syndrome (ACS) or cardiovascular death” value ([2]; x = 1-RR, versus placebo, patients who developed permanent atrial fibrillation/flutter) was 20%.
For `CCCCc1oc2ccc(NS(C)(=O)=O)cc2c1C(=O)c1ccc(OCCCN(CCCC)CCCC)cc1` [dronedarone, 2-n-butyl-3-[4-(3-di-n-butylaminopropoxy)benzoyl]-5-methylsulfonamido-benzofuranne], the incidence of stroke [3] is given as “ability to reduce the incidence of stroke”.
In the case of `CC(C)NCC(O)c1ccc(NS(C)(=O)=O)cc1` (centres unmarked) [sotalol], the “number of strokes per 100 patient-years of follow-up” value [1] is listed as 2.71 per 100 patient-years and the “increasing the time to a recurrence of atrial fibrillation” value [1] is listed as “significantly more effective than placebo”.
